Laboratory results from patent publication US11452292B2, “Biofilm inhibitor and method of inhibiting biofilm” (NDSU Research Foundation, priority 2017, dated 2022).
≈ marks a conversion by molar mass, not a printed value. Where “and” joins values, the source holds several entries; their conditions need not be identical. Equal values may be shown once. Read-outs that look alike come from different tables or passages of the source.

What was measured:
Y. enterocolitica [1] = experiment: Biofilm in silicone tubing, EAA flush, CV assay; conditions: 10 mg/ml EAA
S. enterica = assay type: cell-based, Salmonella enterica serovar Typhimurium
C. sakazakii = experiment: Biofilm amounts, ATP assay, 24-well polystyrene plate; assay type: cell-based; conditions: Cronobacter sakazakii, 37° C.
B. subtilis = conditions: cited from earlier work
P. aeruginosa = experiment: Viable cell counts in the liquid collected from the tubing before each treatment
S. marcescens [2] = experiment: Biofilm amounts, ATP assay, 24-well polystyrene plate; assay type: cell-based; conditions: Serratia marcescens, 30° C.
E. coli CFT073 [3] = experiment: Biofilm in silicone tubing, EAA flush, ATP assay
[4] = tested on: Cronobacter sakazakii, Serratia marcescens, and Yersinia enterocolitica; experiment: Growth and biofilm assays, summary over the three pathogens
[5] = tested on: tested bacterial pathogens; experiment: Biofilm in silicone tubing, EAA flush, ATP assay, summary over strains; assay type: cell-based
From the text: (§1) An AV Fistula Needle 17 Ga.

E. coli O157:H7 = assay type: cell-based, Escherichia coli O157:H7; conditions: 0.5% EAA
E. coli CFT073 [6] = experiment: Biofilm in silicone tubing, EAA flush, CV assay
albino rabbits = conditions: 0.5 ml EAA, semi-occlusive cover, intact skin, 4 hours of exposure; cited from earlier work
S. marcescens [7] = experiment: Biofilm in silicone tubing, EAA flush, ATP assay; conditions: 5 mg/ml EAA
rats = rats fed up to 300 mg/kg body weight of EAA every day for 28 days; cited from earlier work
Y. enterocolitica [8] = experiment: Biofilm in silicone tubing, EAA flush, ATP assay
total bacterial count = experiment: Ground beef at 10° C., total bacterial count on PCA plates; assay type: cell-based; conditions: for total bacterial count in the presence of EAA: day 3, unsupplemented 9 log10; for Different from 0% (concentrations grouping differently from untreated control, Fisher's LSD and t-test): PCA, total bacterial count
Description: Ground beef was obtained from the NDSU Meat Lab (ag.ndsu.edu/ansc/facilities/shepperd-arena). Precautionary steps that the slaughter facility undertakes to prevent microbial contamination of muscle meat include rinses of the hot carcass with hot water and 2.5% lactic acid (Birko Corp., Henderson, Colo.). Prior to cutting the meat, cattle halves are incubated for two weeks at a temperature between 0 and 2.2° C. For this Example, meat from two animals was ground within the NDSU Meat Lab and consecutively transferred on ice to the research lab where this Experiment was conducted. Approximately 4 pound of ground meat was obtained from two independent slaughter events (FIG. 6). These two original meat samples are referred to as biological replicates throughout this study. Each biological replicate was weighed into five aliquots of 200 g that were supplemented with 0 g, 0.1 g, 0.5 g, 1 g, or 5 g of liquid EAA (Alfa Aesar, Ward Hill Mass.). A total of six aliquots of 10 g were produced from each 200 g aliquot to allow for two technical replicates and determination of bacterial counts at three different time points during the incubation period. Aliquots were stored in Ziploc bags at −20° C.
Meat samples were removed from the freezer and incubated at 10° C. for five days; bacterial counts were determined on days 1, 3, and 5. For one initial experiment, samples were removed after 1 h of incubation at 10° C. This aliquot is not included in FIG. 6.
The content of each bag was transferred into a stomacher bag and Maximum Recovery Diluent (MRD) was added to a total of 50 ml. Meat was homogenized in a Seward Stomacher 400 Circulator (Cole Parmer, Vernon Hills, Ill.). The total bacterial count of each homogenate was determined by plating serial dilutions on Plate Count Agar (PCA). Pseudomonads were determined with Pseudomonas Selective Agar (PSA), lactobacilli with All Purpose Tween agar (APT), B. thermospacta with Streptomycin sulphate, Thallous Acetate and Actidione agar (STAA), and Enterobacteriaceae with Violet Red Bile Glucose agar (VRBG). For the composition of these media, see TABLE 7 (BD: Becton Dickinson). Each serial dilution was plated onto two separate agar plates to allow for two plate replicates (FIG. 6).
Each experiment was performed in a total of 8 replicates (2 biological replicates×2 technical replicates×2 plate replicates). To prepare for analysis, the data sets were pre-processed by determining the averages for the 2 plate replicates. Data were analyzed for each EAA concentration and selective media and expressed as CFU/g of meat or log10 CFU/g of meat. The lower limit of detection was 49 CFU, which is the equivalent of 1.69 log10. This number was used for all experiments that yielded zero colonies from the undiluted homogenate. To determine log reductions, the log10 CFU/g of meat at a given concentration of EAA was subtracted from that obtained for the untreated control piece of meat. Average and standard errors were calculated across the two biological and two technical replicates. Statistical analysis was started with an Analysis of Variance (ANOVA) test that compared the means of the log10 CFU/g data across concentrations, days, and biological replicates to determine the main effects. For comparisons that determined statistically significant differences between the means (p-value below 0.05), Fisher's Least Significant Difference (LSD) test and a pairwise Student's t-test were performed as post hoc test to determine which of the groups were different from the others.

S. aureus = experiment: Biofilm in silicone tubing, EAA flush, ATP assay; assay type: cell-based, Staphylococcus aureus
From the text: as §1

CCOC(=O)CC(C)=O [EAA, ethyl acetoacetate]
reduction in biofilm biomass (CV), words (Y. enterocolitica [1]): No reduction | reduction in the bacterial counts of S. enterica (S. enterica; 0.5% EAA, 10° C.): not observed | log reduction, Salmonella enterica serovar Typhimurium (S. enterica; 0.5% w/w EAA, 3 days at 10° C.): 0.2 | IC50 (C. sakazakii): 310 µg/mL (≈ 2.38 mM) | mutagenicity (B. subtilis): No mutagenicity was detected | difference in viable cells in the liquid, EAA vs media flush (P. aeruginosa; before the 2nd treatment, 100 mg/ml of EAA as first treatment): < 2 log | increase in viable cells in the liquid, EAA vs media flush (P. aeruginosa; before the 4th treatment, 3 treatments of 100 mg/ml of EAA): ~1 log | difference in cell numbers, EAA vs media control (P. aeruginosa; before the third treatment, two treatments of 100 mg/ml of EAA): approximately 2 logs | IC50 (S. marcescens [2]): 5500 µg/mL (≈ 42.3 mM) | reduction in ATP content of the biofilm (E. coli CFT073 [3]; E. coli CFT073, 5 mg/ml EAA): ~100% | percent reduction of ATP (E. coli CFT073 [3]; E. coli CFT073, 100 mg/ml EAA): 98.5% | IC50 ([4]; read-out: IC50 values for biofilm amounts (summary)): ~1000 µg/mL (≈ 7.68 mM) | IC50 ([4]; read-out: IC50 values, range over all experiments): 310 to 5600 µg/mL (≈ 2.38 to 43 mM) | reduction of growth, biofilm amounts and live bacterial cell counts ([4]; three pathogens, maximal reduction): up to 3 logs | reductions of ATP, all strains except S. marcescens ([5]; 10 mg/ml EAA): ≥ 80% | reduction of ATP content of the biofilm, almost all tested pathogens ([5]; 100 mg/ml of EAA flush): 100% | reduction of ATP content depending on the strain ([5]; 10 and 100 mg/ml EAA): 90-99% | externally added E. coli count in the presence of EAA (E. coli O157:H7; day 3, without EAA 5.2 log10): 4.1 log10 | reduction in the E. coli count (E. coli O157:H7; day 5 at 10° C.): 1.6 log | reduction in total biofilm biomass (CV), words (E. coli CFT073 [6]; E. coli CFT073, 5 mg/ml of EAA): almost no reduction | reduction in biofilm biomass (CV), words (E. coli CFT073 [6]; E. coli CFT073, 10 mg/ml EAA): No reduction | skin irritation (albino rabbits): no indications of irritation were detected | reduction in ATP content of the biofilm (S. marcescens [7]): ~100% | general health, hematology, serum, urine, renal function (rats): did not result in any general health defects or changes in hematology, serum, urine, or renal function | reduction in ATP content in the biofilm (Y. enterocolitica [8]; 1 mg/ml EAA): 71% | percent reduction of ATP (Y. enterocolitica [8]; 100 mg/ml EAA): 105% | log reduction, total bacterial count (total bacterial count; 0.5% EAA, 3 days at 10° C.): 2.4 | log reduction, total bacterial count (total bacterial count; 0.5% of EAA, 1 day at 10° C.): 0.65 | total bacterial count in the presence of EAA (total bacterial count; 0.5% of EAA): 7.8 log10 | reduction of total bacterial count (total bacterial count; 2.5% EAA, 5 days at 10° C.): 4.3 logs | log reduction, total bacterial count (total bacterial count; 2.5% of EAA, 1 day at 10° C.): 2.1 | total bacterial count in the presence of EAA (total bacterial count; 2.5% of EAA): 6.6 log10 | Different from 0% (concentrations grouping differently from untreated control, Fisher's LSD and t-test) (total bacterial count; 0.5% EAA): 0.5% | Different from 0% (concentrations grouping differently from untreated control, Fisher's LSD and t-test) (total bacterial count; 2.5% EAA): 2.5% | percent reduction of ATP (S. aureus; 100 mg/ml EAA): 75% and 76% | ATP assay of the biofilm at the end of the two week incubation (S. aureus; 100 mg/ml of EAA, repeated experiment): just about abolished the biofilm
